# From patent US20110105326A1, “Method for Enhancing the Rainfastness of Glyphosate” (BASF SE, priority 2008, published 2011)
# Legend:
# Type in all cases: in vivo
# [1] = system: Brachiaria decumbens (BRADE); assay: herbicidal action with/without simulated rainfall after treatment, Brachiaria decumbens; design: key: % damage vs untreated control; 0 = no damage, 100 = complete destruction
# Procedure, shortened: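 Glyphosate alone, component B alone or their mixture sprayed at 200 l/ha on weeds at the 6–8 leaf stage. Simulated rain of 20 mm applied 15 min, 30 min, 1, 2, 3, 4 or 6 h after treatment. Damage scored 0–100% against untreated controls.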
# [2] = system: Bidens pilosa (BIDPI); assay: herbicidal action with/without simulated rainfall after treatment, Bidens pilosa; details: Example 9, flumioxazin 60 g/ha, glyphosate 1080 g/ha, 0.5% v/v Dash in Flumioxazin and mixture
# Method: (§1) The enhancement of the rainfastness of glyphosate was determined via the herbicidal activity of the mixture comprising glyphosate and the respective rainfastness enhancing herbicidal component B as well as of the single herbicidal components in relation to simulated rainfall at different time intervals.
# (§2) The evaluation of the damage caused by the method and the compositions the according to the present invention and the single herbicidal components was carried out using a scale from 0 to 100%, compared to the untreated control plots. Here, 0 means no damage and 100 means complete destruction of the plants of a respective weed or crop species.
# (§3) The application was performed with a fixed spayer system with air pressurization and with a tank spray volume of two liters. The speed of the spray device over the plants was adjusted for a spray volume of 200 I/ha. The spray device was a spray barr with four nozzles from the type Teejet XR 11002VS with a space of 50 cm between each nozzle.
# (§4) The application was performed at a weed stage of 6 to 8 leaves. After the application of the formulated herbicides the leaves were washed through rain of 20 mm using a fixed rain simulator system at following time interval: 15 min, 30 min, 1, 2, 3, 4 and 6 hours after treatment.
# [3] = system: Ipomoea grandifolia (IPOGR); assay: herbicidal action with/without simulated rainfall after treatment, Ipomoea grandifolia; details: Example 10, flumioxazin 60 g/ha, glyphosate 1080 g/ha, 0.5% v/v Dash in Flumioxazin and mixture
# Method: as §1, §2, §3, §4
# [4] = simulated rainfall 15 min after treatment, 1 DAA
# [5] = simulated rainfall 15 min after treatment, 2 DAA
# [6] = simulated rainfall 15 min after treatment, 3 DAA
# [7] = simulated rainfall 15 min after treatment, 7 DAA
# [8] = simulated rainfall 2 hours after treatment, 1 DAA
# [9] = simulated rainfall 2 hours after treatment, 2 DAA
# [10] = simulated rainfall 2 hours after treatment, 3 DAA
# [11] = simulated rainfall 2 hours after treatment, 7 DAA
# [12] = without simulated rainfall, 1 DAA
# [13] = without simulated rainfall, 2 DAA
# [14] = without simulated rainfall, 3 DAA
# [15] = without simulated rainfall, 7 DAA
compound,measurement,setting,value
"C#CCN1C(=O)COc2cc(F)c(N3C(=O)C4=C(CCCC4)C3=O)cc21 [Flumioxazin, flumioxazin]",herbicidal action against BRADE,"[1]; Example 11, simulated rainfall 15 min after treatment, 1 DAA, flumioxazin 60 g/ha, glyphosate 1080 g/ha, 0.5% v/v Dash in Flumioxazin and mixture",28.33%
same,herbicidal action against BRADE,"[1]; Example 11, simulated rainfall 15 min after treatment, 2 DAA, flumioxazin 60 g/ha, glyphosate 1080 g/ha, 0.5% v/v Dash in Flumioxazin and mixture",64.66%
same,herbicidal action against BRADE,"[1]; Example 11, simulated rainfall 15 min after treatment, 3 DAA, flumioxazin 60 g/ha, glyphosate 1080 g/ha, 0.5% v/v Dash in Flumioxazin and mixture",80%
same,herbicidal action against BRADE,"[1]; Example 11, simulated rainfall 15 min after treatment, 7 DAA, flumioxazin 60 g/ha, glyphosate 1080 g/ha, 0.5% v/v Dash in Flumioxazin and mixture",82.33%
same,herbicidal action against BRADE,"[1]; Example 11, simulated rainfall 30 min after treatment, 1 DAA, flumioxazin 60 g/ha, glyphosate 1080 g/ha, 0.5% v/v Dash in Flumioxazin and mixture",22.33%
same,herbicidal action against BRADE,"[1]; Example 11, simulated rainfall 30 min after treatment, 2 DAA, flumioxazin 60 g/ha, glyphosate 1080 g/ha, 0.5% v/v Dash in Flumioxazin and mixture",53.66%
same,herbicidal action against BRADE,"[1]; Example 11, simulated rainfall 30 min after treatment, 3 DAA, flumioxazin 60 g/ha, glyphosate 1080 g/ha, 0.5% v/v Dash in Flumioxazin and mixture",76%
same,herbicidal action against BRADE,"[1]; Example 11, simulated rainfall 30 min after treatment, 7 DAA, flumioxazin 60 g/ha, glyphosate 1080 g/ha, 0.5% v/v Dash in Flumioxazin and mixture",76.66%
same,herbicidal action against BRADE,"[1]; Example 11, without simulated rainfall, 1 DAA, flumioxazin 60 g/ha, glyphosate 1080 g/ha, 0.5% v/v Dash in Flumioxazin and mixture",14.66%
same,herbicidal action against BRADE,"[1]; Example 11, without simulated rainfall, 2 DAA, flumioxazin 60 g/ha, glyphosate 1080 g/ha, 0.5% v/v Dash in Flumioxazin and mixture",41%
same,herbicidal action against BRADE,"[1]; Example 11, without simulated rainfall, 3 DAA, flumioxazin 60 g/ha, glyphosate 1080 g/ha, 0.5% v/v Dash in Flumioxazin and mixture",42.66%
same,herbicidal action against BRADE,"[1]; Example 11, without simulated rainfall, 7 DAA, flumioxazin 60 g/ha, glyphosate 1080 g/ha, 0.5% v/v Dash in Flumioxazin and mixture",51%
same,herbicidal action against BRADE,"[1]; simulated rainfall 2 hours after treatment, 1 DAA, Example 11.4",16.33
same,herbicidal action against BRADE,"[1]; simulated rainfall 2 hours after treatment, 2 DAA, Example 11.4",50.66
same,herbicidal action against BRADE,"[1]; simulated rainfall 2 hours after treatment, 3 DAA, Example 11.4",65
same,herbicidal action against BRADE,"[1]; simulated rainfall 2 hours after treatment, 7 DAA, Example 11.4",80
same,herbicidal action against BRADE,"[1]; simulated rainfall 6 hours after treatment, 1 DAA, Example 11.5",21.66
same,herbicidal action against BRADE,"[1]; simulated rainfall 6 hours after treatment, 2 DAA, Example 11.5",44.33
same,herbicidal action against BRADE,"[1]; simulated rainfall 6 hours after treatment, 3 DAA, Example 11.5",63.33
same,herbicidal action against BRADE,"[1]; simulated rainfall 6 hours after treatment, 7 DAA, Example 11.5",65
same,herbicidal action against BIDPI,[2]; [4],51%
same,herbicidal action against BIDPI,[2]; [5],59.66%
same,herbicidal action against BIDPI,[2]; [6],64%
same,herbicidal action against BIDPI,[2]; [7],69%
same,herbicidal action against BIDPI,"[2]; simulated rainfall 30 min after treatment, 1 DAA",63.66%
same,herbicidal action against BIDPI,"[2]; simulated rainfall 30 min after treatment, 2 DAA",63%
same,herbicidal action against BIDPI,"[2]; simulated rainfall 30 min after treatment, 3 DAA",82%
same,herbicidal action against BIDPI,"[2]; simulated rainfall 30 min after treatment, 7 DAA",78.33%
same,herbicidal action against BIDPI,[2]; [8],72.33%
same,herbicidal action against BIDPI,[2]; [9],86.66%
same,herbicidal action against BIDPI,[2]; [10],91.66%
same,herbicidal action against BIDPI,[2]; [11],96.66%
same,herbicidal action against BIDPI,"[2]; simulated rainfall 6 hours after treatment, 1 DAA",66.66%
same,herbicidal action against BIDPI,"[2]; simulated rainfall 6 hours after treatment, 2 DAA",84%
same,herbicidal action against BIDPI,"[2]; simulated rainfall 6 hours after treatment, 3 DAA",91.33%
same,herbicidal action against BIDPI,"[2]; simulated rainfall 6 hours after treatment, 7 DAA",92.66%
same,herbicidal action against BIDPI,[2]; [12],80%
same,herbicidal action against BIDPI,[2]; [13],92%
same,herbicidal action against BIDPI,[2]; [14],98%
same,herbicidal action against BIDPI,[2]; [15],98.66%
same,herbicidal action against IPOGR,[3]; [4],20.33%
same,herbicidal action against IPOGR,[3]; [5],75%
same,herbicidal action against IPOGR,[3]; [6],82.33%
same,herbicidal action against IPOGR,[3]; [7],98.33%
same,herbicidal action against IPOGR,"[3]; simulated rainfall 15 min after treatment, 14 DAA",90%
same,herbicidal action against IPOGR,[3]; [8],24.66%
same,herbicidal action against IPOGR,[3]; [9],80%
same,herbicidal action against IPOGR,[3]; [10],94.33%
same,herbicidal action against IPOGR,[3]; [11],99.66%
same,herbicidal action against IPOGR,"[3]; simulated rainfall 2 hours after treatment, 14 DAA",100%
same,herbicidal action against IPOGR,[3]; [12],19.33%
same,herbicidal action against IPOGR,[3]; [13],93.66%
same,herbicidal action against IPOGR,[3]; [14],98%
same,herbicidal action against IPOGR,[3]; [15],98.66%
same,herbicidal action against IPOGR,"[3]; without simulated rainfall, 14 DAA",97.66%
